Earlier results as cited in patent US10434198B2, “Radiopharmaceutical solutions with advantageous properties” (Sciencons AS, priority 2015, dated 2019).

Experiments:
MDA-MB-231 (SA) = conditions: 250 kBq/kg (3.6×10^11 ^223Ra atoms), Suominen et al. 2013
[1] = 10 minutes after injection

SMILES | survival advantage (MDA-MB-231 (SA)) [%] | reduction of radium in blood [1] [%]
[Cl][223Ra][Cl] [^223Ra, radium-223 dichloride] | 43 | –
[Ra] [radium] | – | 88
